Test results published in the supplement of paper PMC11061612.

How the values were obtained:
Test in all cases: Bliss excess, mean over the matrix (fraction); higher = more synergy
[1] = tested on: CAL-148 (Breast Carcinoma)
In short: (§1)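 Bliss excess equals the observed combination effect minus the expected value EA + EB − EA·EB, where EA and EB are the effects of each agent alone. Combination Emax is the second-highest inhibition within the matrix. Inhibition was scaled from CellTiter-Glo 2.0 luminescence, with 0 set by vehicle wells and 1 by blank wells, after 72 hours of two-drug dosing of cells plated in 1536-well plates.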

[2] = tested on: KP-1N (Pancreatic Carcinoma)
In short: as §1

[3] = tested on: Calu-3 (Lung Adenocarcinoma)
In short: as §1

[4] = tested on: LS-180 (Colorectal Carcinoma)
In short: as §1

[5] = tested on: MDA-MB-361 (Breast Carcinoma)
In short: as §1

[6] = tested on: Hs-578-T (Breast Carcinoma)
In short: as §1

KELLY (Neuroblastoma) = tested on: KELLY (Neuroblastoma)
In short: as §1

[7] = tested on: HuP-T4 (Pancreatic Carcinoma)
In short: as §1

[8] = tested on: CaR-1 (Colorectal Carcinoma)
In short: as §1

[9] = tested on: HT-1376 (Bladder Carcinoma)
In short: as §1

[10] = tested on: OVCA420 (Ovarian Carcinoma)
In short: as §1

[11] = tested on: MFE-296 (Endometrial Carcinoma)
In short: as §1

[12] = tested on: LNCaP-Clone-FGC (Prostate Carcinoma)
In short: as §1

[13] = tested on: Daoy (Other Solid Carcinomas)
In short: as §1

[14] = tested on: HCC1806 (Breast Carcinoma)
In short: as §1

[15] = tested on: KYSE-520 (Esophageal Squamous Cell Carcinoma)
In short: as §1

NB10 (Neuroblastoma) = tested on: NB10 (Neuroblastoma)
In short: as §1

[16] = tested on: KURAMOCHI (Ovarian Carcinoma)
In short: as §1

[17] = tested on: B-CPAP (Thyroid Gland Carcinoma)
In short: as §1

[18] = tested on: LB831-BLC (Bladder Carcinoma)
In short: as §1

Structure (SMILES)	Bliss excess [1]	Bliss excess [2]	Bliss excess [3]	Bliss excess [4]	Bliss excess [5]	Bliss excess [6]	Bliss excess (KELLY (Neuroblastoma))	Bliss excess [7]	Bliss excess [8]	Bliss excess [9]	Bliss excess [10]	Bliss excess [11]	Bliss excess [12]	Bliss excess [13]	Bliss excess [14]	Bliss excess [15]	Bliss excess (NB10 (Neuroblastoma))	Bliss excess [16]	Bliss excess [17]	Bliss excess [18]
COc1nnc2ccc(N3CCC(c4ccc(OCCN5CCN(C)C(=O)[C@H]5C)cc4)CC3)nn12 [AZD5153] + CC1(C)CCC(CN2CCN(c3ccc(C(=O)NS(=O)(=O)c4ccc(NCC5CCOCC5)c([N+](=O)[O-])c4)c(Oc4cnc5[nH]ccc5c4)c3)CC2)=C(c2ccc(Cl)cc2)C1 [Venetoclax] (first compound max 1 µM, 7x7, partner max 1 µM)	-0.0682	-0.0714	-0.0258	-0.0614	-0.0257	-0.0614	-0.0857	-0.0457	-0.0643	-0.0305	-0.0527	-0.0824	-0.0468	-0.0568	-0.0513	-0.0444	-0.0566	-0.0471	-0.0858	-0.0627
CCN(CCO)CCCOc1ccc2c(Nc3cc(CC(=O)Nc4cccc(F)c4)[nH]n3)ncnc2c1 [AZD2811] + C=CCn1c(=O)c2cnc(Nc3ccc(N4CCN(C)CC4)cc3)nc2n1-c1cccc(C(C)(C)O)n1 [AZD1775] (first compound max 1 µM, partner max 1 µM)	-0.0165	0.0124	-0.0306	0.0269	-0.0044	-0.0212	0.0569	0.0274	-0.0165	-0.0947	-0.0047	-0.0245	0.0001	0.026	0.0012	-0.0048	-0.0399	-0.0602	-0.0363	0.005
CC1(C)CCC(CN2CCN(c3ccc(C(=O)NS(=O)(=O)c4ccc(NCC5CCOCC5)c([N+](=O)[O-])c4)c(Oc4cnc5[nH]ccc5c4)c3)CC2)=C(c2ccc(Cl)cc2)C1 [Venetoclax] + C[C@@H](Nc1cc(F)cc(F)c1)c1cc(C(=O)N(C)C)cc2c(=O)cc(N3CCOCC3)oc12 [AZD8186] (first compound max 1 µM, 7x7, partner max 3 µM)	0.0101	0.0036	-0.0189	-0.0286	-0.0151	-0.0314	0.0068	0.0033	-0.0366	-0.0446	-0.0285	-0.0248	-0.0066	-0.0073	-0.0149	-0.06	-0.0084	-0.0467	-0.0151	-0.0465
COc1nnc2ccc(N3CCC(c4ccc(OCCN5CCN(C)C(=O)[C@H]5C)cc4)CC3)nn12 [AZD5153] + C=CCn1c(=O)c2cnc(Nc3ccc(N4CCN(C)CC4)cc3)nc2n1-c1cccc(C(C)(C)O)n1 [AZD1775] (first compound max 1 µM, partner max 1 µM)	-0.0117	0.0464	-0.0678	-0.049	-0.136	-0.0661	-0.0581	-0.0435	-0.0267	0.0053	-0.0589	-0.0541	-0.0733	-0.0196	-0.0704	-0.0399	-0.0727	-0.0373	-0.0803	-0.0157
